Results taken from US12263248B2, “Compounds and compositions for intracellular delivery of therapeutic agents” (ModernaTX, Inc., priority 2018, dated 2025).

Columns and labels:
luciferase (Luc) mRNA [1] = experiment: Luc expression, whole body bioluminescence after intravenous administration to mice; format: in vivo; details: for Fold increase in total body Luc Flux relative to MC3 at 6 h: Table 3A; for Total Flux 3 hours / Total Flux 6 hours / Total Flux 24 hours: mice, i.v., 0.5 mg/kg, Luc mRNA
Description: In order to monitor how effectively various nanoparticle compositions deliver therapeutic and/or prophylactics to targeted cells, different nanoparticle compositions including a particular therapeutic and/or prophylactic (for example, a modified or naturally occurring RNA such as an mRNA) are prepared and administered to rodent populations. Mice are intravenously, intramuscularly, intraarterially, or intratumorally administered a single dose including a nanoparticle composition with a formulation such as those provided in Example 3. In some instances, mice may be made to inhale doses. Dose sizes may range from 0.001 mg/kg to 10 mg/kg, where 10 mg/kg describes a dose including 10 mg of a therapeutic and/or prophylactic in a nanoparticle composition for each 1 kg of body mass of the mouse. A control composition including PBS may also be employed.
Upon administration of nanoparticle compositions to mice, dose delivery profiles, dose responses, and toxicity of particular formulations and doses thereof can be measured by enzyme-linked immunosorbent assays (ELISA), bioluminescent imaging, or other methods. For nanoparticle compositions including mRNA, time courses of protein expression can also be evaluated. Samples collected from the rodents for evaluation may include blood, sera, and tissue (for example, muscle tissue from the site of an intramuscular injection and internal tissue); sample collection may involve sacrifice of the animals.
The efficacy of the nanoparticle compositions presented in Table 1A was evaluated with a bioluminescence study. Formulations were administered intravenously to mice (n=6) at a dosage of 0.5 mg/kg (mpk) and bioluminescence measured at 3, 6, and 24 hour time points. The standard MC3 formulation and, in some instances, a control (e.g., a PBS control) were evaluated for comparison. […] In general, flux decreased as time progressed to less than 10% of the initial flux.
(§1) Whole body and ex vivo organ bioluminescent imaging of mice: CD-1 mice were injected 15 minutes prior to the imaging timepoint intraperitoneally (IP) with 200 μL Xenolight D-luciferin K+ salt, diluted in PBS just prior to use to a concentration of 15 mg/mL. Ex vivo imaging of organs was completed within 25 minutes of luciferin administration. All images were quantified by region of interest for total flux.

[2] = Apparent (surface) pKa of the LNP formulation (TNS assay); format: physicochemical; details: Table 1A
Description: Using sodium hydroxide (1 M) and hydrochloric acid (1 M), 21 unique buffers were prepared from the master buffer stock at pH values between about 3 and 12. Next, a stock of 300 μM 6-(p-Toluidino)-2-naphthalenesulfonic acid sodium salt (TNS reagent) in DMSO was prepared and the LNP was mixed with the desired formulation buffer at a concentration of 0.04 mg/mL mRNA. This assay has been validated in 1× PBS and 20 mM Tris w/8% sucrose buffer. The buffer solutions at various pH values were added to a 96-well plate in triplicate for each pH. To each well was added 3.26 μL of LNP sample at a mRNA concentration of 0.04 mg/mL and 2.0 μL of 300 μM TNS reagent solution. After careful mixing, the resulting fluorescence values were read for each plate to create a sigmoidal plot of the fluorescence values vs. buffer pH. The […] inflection point of this curve is the apparent pKa of the LNP formulation.

[3] = Encapsulation efficiency of RNA (QUANT-IT RIBOGREEN RNA assay); format: physicochemical; details: Table 1A
Description: For nanoparticle compositions including an RNA, a QUANT-IT™ RIBOGREEN® RNA assay (Invitrogen Corporation Carlsbad, CA) can be used to evaluate the encapsulation of an RNA by the nanoparticle composition. The samples are diluted to a concentration of approximately […] in a TE buffer solution (10 mM Tris-HCl, 1 mM EDTA, pH 7.5). 50 μL of the diluted samples are transferred to a polystyrene 96 well plate and either 50 μL of TE buffer or 50 μL of a 2% Triton X-100 solution is added to the wells. The plate is incubated at a temperature of 37° C. for 15 minutes. The RIBOGREEN® reagent is diluted 1:100 in TE buffer, and 100 μL of this solution is added to each well. The fluorescence intensity can be measured using a fluorescence plate reader (Wallac Victor 1420 Multilabel Counter; Perkin Elmer, Waltham, MA) at an excitation wavelength of, for example, about 480 nm and an emission wavelength of, for example, about 520 nm. The fluorescence values of the reagent blank are subtracted from that of each of the samples and the percentage of free RNA is determined by dividing the fluorescence intensity of the intact sample (without addition of Triton X-100) by the fluorescence value of the disrupted sample (caused by the addition of Triton X-100).

[4] = Particle size and polydispersity index of nanoparticle compositions (Zetasizer Nano ZS); format: physicochemical; details: Table 1A; for Size (nm): lipid:DSPC:cholesterol:PEG-DMG 50:10:38.5:1.5 mol %
Description: A Zetasizer Nano ZS (Malvern Instruments Ltd, Malvern, Worcestershire, UK) can be used to determine the particle size, the polydispersity index (PDI) and the zeta potential of the nanoparticle compositions in 1×PBS in determining particle size and 15 mM PBS in determining zeta potential.

luciferase (Luc) mRNA [5] = experiment: Luc expression in liver, lung, spleen and femur 6 hours after intravenous administration; format: in vivo; details: mice, intravenous, 0.5 mpk
Description: The efficacy of the nanoparticle compositions presented in Table 1A was further evaluated by measuring the expression of modified luciferase in the liver, lung, spleen, and femur upon administration of a given composition. Formulations were administered intravenously to mice (n=3) at a dosage of 0.5 mpk and bioluminescence measured after 6 hours. The standard MC3 formulation and a PBS control were also tested. […] Flux in the liver was lowest for compositions including Compounds 58, 59, 137, and 141. Flux in the spleen was highest for compositions including Compounds 4, 7, 33, 34, 48, 53, 108, 129, 130, and 148, and lowest for compositions including Compounds 9, 59, 124, and 141.
as §1

pKa [2] | EE (%) [3] | PDI [4] | Size (nm) [4] | SMILES | Fold increase in total body Luc Flux relative to MC3 at 6 h (luciferase (Luc) mRNA [1]; i.v. administration) | flux measured at 6 h relative to the MC3 formulation (luciferase (Luc) mRNA [1]; i.v. administration, in words) | Total Flux 3 hours (luciferase (Luc) mRNA [1]) | Total Flux 6 hours (luciferase (Luc) mRNA [1]) | Total Flux 24 hours (luciferase (Luc) mRNA [1]) | Total Flux Liver (luciferase (Luc) mRNA [5]) | Total Flux Lung (luciferase (Luc) mRNA [5]) | Total Flux Spleen (luciferase (Luc) mRNA [5])
6.44 | 97.03% | 0.16 | 91.6 nm | CCCCCCCCC(CCCCCCCC)OC(=O)CCCCCCCN(CCO)CCCC(=O)OCC1CC1CCCCCC (centres unmarked) [Compound 55, heptadecan-9-yl 8-((4-((2-hexylcyclopropyl)methoxy)-4-oxobutyl)(2-hydroxyethyl)amino)octanoate] | 1.52 | higher flux than MC3 formulations | 5.07E+10 | 1.68E+10 | 4.06E+08 | 1.92E+09 | 7.02E+06 | 2.63E+07
6.36 | 98.2% | 0.12 | 63.9 nm | CCCCCCCCC(CCCCCCCC)OC(=O)CCCCCCCN(CCO)CCCCCCCC(=O)OC(CCCCCCCC)C1CC1 (centres unmarked) [Compound 65, 1-Cyclopropylnonyl 8-((8-(heptadecan-9-yloxy)-8-oxooctyl)(2-hydroxyethyl)amino)octanoate] | 3.16 |  | 6.56E+10 | 7.01E+10 | 7.50E+08 | 9.56E+09 | 3.79E+07 | 6.57E+07
6.38 | 98% | 0.13 | 77 nm | CCCCCCCCC(CCCCCCCC)OC(=O)CCCCCCCN(CCO)CCCC(=O)OC1CCC(CCCCC)CC1 (centres unmarked) [Compound 67, Heptadecan-9-yl 8-((2-hydroxyethyl)(4-oxo-4-((4-pentylcyclohexyl)oxy)butyl)amino)octanoate] | 2.08 |  | 4.24E+10 | 4.62E+10 | 4.51E+08 | 3.60E+09 | 1.68E+07 | 2.55E+07
6.69 | 97.7% | 0.14 | 76.8 nm | CCCCCCCCC(CCCCCCCC)OC(=O)CCCCCCCN(CCO)CCCCCC(=O)OC1CCC(CCCCC)CC1 (centres unmarked) [Compound 68, Heptadecan-9-yl 8-((2-hydroxyethyl)(6-oxo-6-((4-pentylcyclohexyl)oxy)hexyl)amino)octanoate] | 3.68 |  | 5.22E+10 | 8.16E+10 | 2.15E+09 | 8.42E+09 | 3.98E+07 | 6.69E+07
6.51 | 97.5% | 0.15 | 73.7 nm | CCCCCCCCC(C)OC(=O)CCCN(CCO)CCCCCCCC(=O)OC(CCCCCCCC)CCCCCCCC (centres unmarked) [Compound 70, Heptadecan-9-yl 8-((4-(decan-2-yloxy)-4-oxobutyl)(2-hydroxyethyl)amino)octanoate] |  |  | 4.70E+10 | 2.49E+10 | 9.27E+08 | 8.55E+08 | 6.32E+06 | 2.06E+06
5.95 | 95.7% | 0.13 | 59.2 nm | CCCCCCCCC(CCCCCCCC)OC(=O)CCCCCCCN(CCO)CCCC(=O)OC(CCCCCC)CCCCCCCC (centres unmarked) [Compound 73, Heptadecan-9-yl 8-((2-hydroxyethyl)(4-oxo-4-(pentadecan-7-yloxy)butyl)amino)octanoate] | 0.48 |  | 8.10E+09 | 1.07E+10 | 1.27E+08 | 7.93E+08 | 6.17E+06 | 9.45E+06
6.08 | 97% | 0.15 | 65.6 nm | CCCCCCCCC(CCC)OC(=O)CCCN(CCO)CCCCCCCC(=O)OC(CCCCCCCC)CCCCCCCC (centres unmarked) [Compound 74, Heptadecan-9-yl 8-((4-(dodecan-4-yloxy)-4-oxobutyl)(2-hydroxyethyl)amino)octanoate] | 1.005 |  | 3.27E+10 | 2.23E+10 | 2.75E+08 | 1.99E+09 | 6.93E+06 | 2.26E+07
7.53 | 89.1% | 0.18 | 93.7 nm | CCCCCCCCCOC(=O)CCCCCCCN(CCO)CCCCCCCC(=O)OC1CCC(CCCCC)CC1 (centres unmarked) [Compound 79, Nonyl 8-((2-hydroxyethyl)(8-oxo-8-((4-pentylcyclohexyl)oxy)octyl)amino)octanoate] |  |  | 3.23E+08 | 5.27E+08 | 3.08E+07 | 3.15E+06 | 6.13E+04 | 6.45E+05
7.52 | 90.7% | 0.19 | 118 nm | CCCCCCCCCOC(=O)CCCCCCCN(CCO)CCCCCCCC(=O)OC1CCC(C2CCCCC2)CC1 (centres unmarked) [Compound 80, [1,1′—Bi(cyclohexan)]-4-yl 8-((2-hydroxyethyl)(8-(nonyloxy)-8-oxooctyl)amino)octanoate] |  |  | 2.76E+08 | 3.26E+08 | 1.54E+07 | 1.09E+07 | 8.97E+04 | 4.71E+06
7.14 | 95.4% | 0.14 | 99.2 nm | CCCCCCCCCOC(=O)CCCCCCCN(CCO)CCCCCCCC(=O)OC1CCCCCCCCCCCCCC1 [Compound 81, Cyclopentadecyl 8-((2-hydroxyethyl)(8-(nonyloxy)-8-oxooctyl)amino)octanoate] |  |  | 7.87E+09 | 9.96E+09 | 5.13E+08 | 2.74E+08 | 6.23E+06 | 4.49E+07
